From paper PMC4503722, “Novel Phenotypic Outcomes Identified for a Public Collection of Approved Drugs from a Publicly Accessible Panel of Assays” (PLoS ONE, 2015)
Like-named read-outs stand apart in the source and are kept apart here.

What was measured:
[1] = tested on: nuclear β-catenin in C2C12 cells; assay: cells; format: cell-based
hJAK2 = target: T1, hJAK2 (Homo sapiens, UniProt O60674); assay: Cerep LANCE kinase assay hJAK2 (S1 assay 33); format: biochemical; conditions: read-out: JAK2
T1 construct: purchased Cerep (LANCE kinase assay platform, contract assay)

SW480 = assay: cells; format: cell-based; conditions: Homo sapiens
hKDR = target: T2, hKDR (Homo sapiens, UniProt P35968); assay: Cerep LANCE kinase assay hKDR (S1 assay 32); format: biochemical
T2 construct: purchased Cerep (LANCE kinase assay platform, contract assay)

hFLT3 = target: T3, hFLT3 (Homo sapiens, UniProt P36888); assay: Cerep LANCE kinase assay hFLT3 (S1 assay 35); format: biochemical; conditions: read-out: FLT3
T3 construct: purchased Cerep (LANCE kinase assay platform, contract assay)

NCI-H716 cells = assay: cells; format: cell-based, Human
DLD-1 = assay: cells; format: cell-based; conditions: Homo sapiens
[2] = tested on: endothelial tube formation in co-cultures of ECFCs and ADSCs treated with VEGF; assay: cells; format: cell-based, human
hGSK3b = target: T4, hGSK3b (Homo sapiens, UniProt P49841); assay: Cerep LANCE kinase assay hGSK3b (S1 assay 34); format: biochemical; conditions: read-out: GSK3b
T4 construct: purchased Cerep (LANCE kinase assay platform, contract assay)

HCT116 = assay: cells; format: cell-based; conditions: Homo sapiens
[3] = tested on: HCT116 cells treated with a GSK3β inhibitor; assay: cells; format: cell-based; conditions: Homo sapiens
HeLa cells = assay: cells; format: cell-based
INS-1E cells = assay: cells; format: cell-based, rat
hp70S6K1 (RPS6KB1) = target: T5, hp70S6K1 (RPS6KB1) (Homo sapiens, UniProt P23443); assay: Cerep LANCE kinase assay hp70S6K1 (S1 assay 31); format: biochemical; conditions: read-out: p70S6K1
T5 construct: purchased Cerep (LANCE kinase assay platform, contract assay)

[4] = Mus musculus, C2C12, read-out: Wnt Pathway
[5] = SW480, read-out: Basal_Viability ATP SW480
[6] = Homo sapiens, NCI-H716, read-out: GLP 1 Secretion
[7] = DLD-1, read-out: Basal_Viability ATP DLD-1
[8] = Homo sapiens, read-out: Anti-Angiogenesis
[9] = HCT-116, read-out: Basal_Viability ATP HCT116
[10] = HCT-116, read-out: GSK3b inh pretreated_Viability ATP HCT116
[11] = Homo sapiens, HeLa, read-out: CellCycle G2/M
[12] = Rattus norvegicus, INS-1E, read-out: Insulin Secretion
[13] = Mus musculus, C2C12, IC50 / EC50; C2C12 beta-catenin translocation; read-out: Wnt Pathway
[14] = SW480, basal, read-out: Basal_Viability ATP SW480
[15] = Homo sapiens; IC50 / EC50; NCI-H716; read-out: GLP 1 Secretion
[16] = DLD-1, basal, read-out: Basal_Viability ATP DLD-1
[17] = Homo sapiens, IC50 / EC50; endothelial tube area, ADSC/ECFC co-culture; read-out: Anti-Angiogenesis
[18] = HCT-116, basal, read-out: Basal_Viability ATP HCT116
[19] = Homo sapiens, HeLa, IC50 / EC50; HeLa; read-out: CellCycle G2/M
[20] = Rattus norvegicus; IC50 / EC50; INS-1E; read-out: Insulin Secretion
[21] = Mus musculus, C2C12; read-out: Wnt Pathway
[22] = SW480, basal, SW480, read-out: Basal_Viability ATP SW480
[23] = Homo sapiens, NCI-H716; read-out: GLP 1 Secretion
[24] = DLD-1, basal, DLD-1, read-out: Basal_Viability ATP DLD-1
[25] = Homo sapiens; read-out: Anti-Angiogenesis
[26] = HCT-116, basal, HCT116, read-out: Basal_Viability ATP HCT116
[27] = HCT-116, HCT116 pretreated with GSK3b inhibitor, read-out: GSK3b inh pretreated_Viability ATP HCT116
[28] = Homo sapiens, HeLa, S2 Table; HeLa; 20 = no response at highest concentration; read-out: CellCycle G2/M
[29] = Rattus norvegicus, INS-1E; read-out: Insulin Secretion

T3 sequence (P36888 27-993): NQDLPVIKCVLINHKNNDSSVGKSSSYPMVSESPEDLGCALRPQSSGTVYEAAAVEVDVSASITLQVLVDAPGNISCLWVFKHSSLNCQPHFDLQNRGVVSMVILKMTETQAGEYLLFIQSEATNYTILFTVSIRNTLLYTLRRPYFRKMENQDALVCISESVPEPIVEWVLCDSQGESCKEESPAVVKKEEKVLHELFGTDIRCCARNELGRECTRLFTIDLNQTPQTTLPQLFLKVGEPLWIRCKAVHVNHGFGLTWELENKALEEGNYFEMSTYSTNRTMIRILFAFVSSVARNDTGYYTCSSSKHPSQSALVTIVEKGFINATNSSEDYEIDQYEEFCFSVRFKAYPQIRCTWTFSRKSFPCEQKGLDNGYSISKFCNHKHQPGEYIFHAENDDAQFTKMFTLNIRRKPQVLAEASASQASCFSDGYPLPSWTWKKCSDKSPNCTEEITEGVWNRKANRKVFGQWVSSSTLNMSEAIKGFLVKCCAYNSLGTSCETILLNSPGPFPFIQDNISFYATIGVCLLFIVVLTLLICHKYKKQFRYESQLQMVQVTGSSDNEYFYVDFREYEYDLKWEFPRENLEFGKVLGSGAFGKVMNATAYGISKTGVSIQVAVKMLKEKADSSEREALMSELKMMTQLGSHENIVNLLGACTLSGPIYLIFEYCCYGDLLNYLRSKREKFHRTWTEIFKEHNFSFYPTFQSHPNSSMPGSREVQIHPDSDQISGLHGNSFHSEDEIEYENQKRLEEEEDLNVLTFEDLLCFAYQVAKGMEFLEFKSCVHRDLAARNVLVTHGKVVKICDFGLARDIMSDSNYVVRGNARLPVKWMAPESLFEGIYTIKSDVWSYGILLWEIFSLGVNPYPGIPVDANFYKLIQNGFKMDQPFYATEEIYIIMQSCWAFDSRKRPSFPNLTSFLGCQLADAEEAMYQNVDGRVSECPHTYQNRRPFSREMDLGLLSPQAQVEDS
T1 sequence (O60674 whole entry): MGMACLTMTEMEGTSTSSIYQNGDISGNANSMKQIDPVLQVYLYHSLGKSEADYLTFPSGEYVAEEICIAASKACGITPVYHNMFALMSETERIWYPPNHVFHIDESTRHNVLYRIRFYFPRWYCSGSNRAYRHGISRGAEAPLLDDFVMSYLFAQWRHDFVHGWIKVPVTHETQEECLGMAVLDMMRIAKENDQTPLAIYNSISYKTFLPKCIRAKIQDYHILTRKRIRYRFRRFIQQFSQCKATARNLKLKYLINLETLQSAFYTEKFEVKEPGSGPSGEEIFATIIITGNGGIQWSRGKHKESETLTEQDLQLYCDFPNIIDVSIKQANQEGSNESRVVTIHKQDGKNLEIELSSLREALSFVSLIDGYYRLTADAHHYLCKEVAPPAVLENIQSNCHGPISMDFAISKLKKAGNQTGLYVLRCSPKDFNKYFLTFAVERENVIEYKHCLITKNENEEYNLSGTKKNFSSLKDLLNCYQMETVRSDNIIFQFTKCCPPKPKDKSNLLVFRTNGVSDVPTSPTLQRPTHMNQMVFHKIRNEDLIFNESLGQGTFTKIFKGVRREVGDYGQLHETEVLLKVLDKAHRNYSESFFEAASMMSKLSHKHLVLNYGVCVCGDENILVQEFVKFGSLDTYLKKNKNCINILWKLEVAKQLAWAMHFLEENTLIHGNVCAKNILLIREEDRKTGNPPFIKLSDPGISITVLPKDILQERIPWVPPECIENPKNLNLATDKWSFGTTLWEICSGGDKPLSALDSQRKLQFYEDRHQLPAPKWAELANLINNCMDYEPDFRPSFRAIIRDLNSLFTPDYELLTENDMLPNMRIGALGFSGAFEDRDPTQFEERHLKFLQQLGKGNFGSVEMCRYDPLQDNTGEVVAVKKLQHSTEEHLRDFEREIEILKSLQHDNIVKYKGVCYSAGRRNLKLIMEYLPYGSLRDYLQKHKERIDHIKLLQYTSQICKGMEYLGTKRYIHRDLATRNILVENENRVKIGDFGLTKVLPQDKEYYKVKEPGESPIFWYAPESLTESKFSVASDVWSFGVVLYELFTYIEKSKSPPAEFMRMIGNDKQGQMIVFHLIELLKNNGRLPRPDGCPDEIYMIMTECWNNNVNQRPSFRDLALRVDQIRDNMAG
T5 sequence (P23443 whole entry): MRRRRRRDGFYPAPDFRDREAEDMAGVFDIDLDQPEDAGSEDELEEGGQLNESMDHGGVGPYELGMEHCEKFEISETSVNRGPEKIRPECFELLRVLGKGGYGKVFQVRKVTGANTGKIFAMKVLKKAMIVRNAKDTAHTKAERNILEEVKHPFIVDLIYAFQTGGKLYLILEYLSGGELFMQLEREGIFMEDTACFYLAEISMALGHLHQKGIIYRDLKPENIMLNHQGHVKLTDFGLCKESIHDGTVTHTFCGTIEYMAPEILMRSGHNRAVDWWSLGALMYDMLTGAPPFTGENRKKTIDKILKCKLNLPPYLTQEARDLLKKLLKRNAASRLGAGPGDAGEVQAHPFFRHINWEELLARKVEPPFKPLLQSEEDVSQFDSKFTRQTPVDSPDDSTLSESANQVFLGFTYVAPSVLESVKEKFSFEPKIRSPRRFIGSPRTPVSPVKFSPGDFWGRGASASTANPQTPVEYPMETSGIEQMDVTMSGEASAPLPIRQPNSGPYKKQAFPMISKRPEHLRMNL
T2 sequence (P35968 20-1356): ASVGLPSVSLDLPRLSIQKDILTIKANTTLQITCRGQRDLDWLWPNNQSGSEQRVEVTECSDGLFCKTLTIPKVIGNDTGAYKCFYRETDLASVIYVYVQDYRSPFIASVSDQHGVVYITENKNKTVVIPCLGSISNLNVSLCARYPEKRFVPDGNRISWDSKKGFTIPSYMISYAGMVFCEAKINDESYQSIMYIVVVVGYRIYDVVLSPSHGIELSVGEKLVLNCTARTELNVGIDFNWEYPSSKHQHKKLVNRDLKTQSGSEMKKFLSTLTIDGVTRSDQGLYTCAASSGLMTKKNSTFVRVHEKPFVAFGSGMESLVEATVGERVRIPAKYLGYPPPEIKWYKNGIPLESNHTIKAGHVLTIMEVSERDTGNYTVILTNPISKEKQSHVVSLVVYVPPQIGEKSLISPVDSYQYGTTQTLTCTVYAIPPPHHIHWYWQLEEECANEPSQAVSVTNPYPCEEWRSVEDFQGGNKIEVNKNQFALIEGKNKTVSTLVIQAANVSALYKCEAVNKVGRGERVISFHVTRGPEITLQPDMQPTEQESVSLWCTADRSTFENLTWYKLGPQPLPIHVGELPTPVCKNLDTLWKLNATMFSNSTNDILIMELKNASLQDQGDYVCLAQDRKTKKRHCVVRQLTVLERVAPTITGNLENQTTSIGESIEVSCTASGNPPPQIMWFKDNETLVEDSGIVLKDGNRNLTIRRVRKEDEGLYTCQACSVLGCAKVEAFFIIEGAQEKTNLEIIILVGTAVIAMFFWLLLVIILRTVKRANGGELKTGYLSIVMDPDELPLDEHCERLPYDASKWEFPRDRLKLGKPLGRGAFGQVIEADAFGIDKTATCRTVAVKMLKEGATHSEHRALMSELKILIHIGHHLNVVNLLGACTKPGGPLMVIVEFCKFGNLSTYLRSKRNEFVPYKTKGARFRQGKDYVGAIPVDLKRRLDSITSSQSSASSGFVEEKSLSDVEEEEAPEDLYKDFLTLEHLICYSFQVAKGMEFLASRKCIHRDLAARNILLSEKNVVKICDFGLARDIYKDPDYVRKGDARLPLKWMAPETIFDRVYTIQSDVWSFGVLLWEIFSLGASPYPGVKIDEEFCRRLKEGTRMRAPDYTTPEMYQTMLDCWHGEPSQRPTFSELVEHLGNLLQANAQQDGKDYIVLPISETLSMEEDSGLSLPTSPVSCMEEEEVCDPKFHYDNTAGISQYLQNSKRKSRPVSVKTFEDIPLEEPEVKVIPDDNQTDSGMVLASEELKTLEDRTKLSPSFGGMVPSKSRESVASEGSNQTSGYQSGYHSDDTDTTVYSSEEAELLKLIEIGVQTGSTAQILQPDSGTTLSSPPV
T4 sequence (P49841 whole entry): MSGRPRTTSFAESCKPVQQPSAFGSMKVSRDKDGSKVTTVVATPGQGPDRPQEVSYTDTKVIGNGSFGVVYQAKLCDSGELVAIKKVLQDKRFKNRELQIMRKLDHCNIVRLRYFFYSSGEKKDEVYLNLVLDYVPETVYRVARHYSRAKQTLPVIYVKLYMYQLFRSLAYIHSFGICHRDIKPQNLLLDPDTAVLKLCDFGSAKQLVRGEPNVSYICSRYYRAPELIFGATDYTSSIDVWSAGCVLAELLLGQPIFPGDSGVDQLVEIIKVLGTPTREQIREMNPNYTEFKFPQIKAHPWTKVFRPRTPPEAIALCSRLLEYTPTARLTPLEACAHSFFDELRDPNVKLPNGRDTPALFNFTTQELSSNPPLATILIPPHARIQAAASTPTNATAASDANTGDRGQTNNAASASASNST

## CC(=O)[C@]1(O)Cc2c(O)c3c(c(O)c2[C@@H](O[C@H]2C[C@H](N)[C@H](O)[C@H](C)O2)C1)C(=O)c1ccccc1C3=O [Idarubicin]
[1]; [4]
  EC50: 0.1 µM
hJAK2; kinase assay
  IC50: > 20 µM
SW480; [5]
  IC50: 4.75 µM
hKDR; kinase assay, read-out: KDR
  IC50: > 20 µM
hFLT3; kinase assay
  IC50: > 20 µM
NCI-H716 cells; [6]
  EC50: > 10 µM
DLD-1; [7]
  IC50: 0.387 µM
[2]; [8]
  IC50: 0.0208 µM
hGSK3b; kinase assay
  IC50: > 20 µM
HCT116; [9]
  IC50: 0.0667 µM
[3]; [10]
  IC50: 0.1 µM
HeLa cells; [11]
  EC50: > 10 µM
INS-1E cells; [12]
  EC50: > 10 µM
hp70S6K1 (RPS6KB1); kinase assay
  IC50: > 20 µM

## COC(=O)Nc1nc2ccc(C(=O)c3ccccc3)cc2[nH]1 [Mebendazole]
[1]; [4]
  EC50: 0.245 µM
hJAK2; kinase assay
  IC50: > 20 µM
SW480; [5]
  IC50: > 20 µM
hKDR
  IC50: 1.43 µM
hFLT3; kinase assay
  IC50: > 20 µM
NCI-H716 cells; [6]
  EC50: > 10 µM
DLD-1; [7]
  IC50: 10.1 µM
[2]; [8]
  IC50: 0.37 µM
hGSK3b; kinase assay
  IC50: > 20 µM
HCT116; [9]
  IC50: 8.26 µM
[3]; [10]
  IC50: > 20 µM
HeLa cells; [11]
  EC50: 0.08 µM
INS-1E cells; [12]
  EC50: > 10 µM
hp70S6K1 (RPS6KB1); kinase assay
  IC50: > 20 µM

## Cc1ccccc1C(=O)Nc1ccc(C(=O)N2CCCC(N(C)C)c3ccccc32)cc1 (centres unmarked) [Mozavaptan]
[1]; [13]
  EC50: 4.56 µM
hJAK2
  IC50: > 20 µM
SW480; [14]
  IC50: 3.45 µM
hKDR; read-out: KDR
  IC50: > 20 µM
hFLT3
  IC50: > 20 µM
NCI-H716 cells; [15]
  EC50: > 10 µM
DLD-1; [16]
  IC50: 12.8 µM
[2]; [17]
  IC50: > 10 µM
hGSK3b
  IC50: > 20 µM
HCT116; [18]
  IC50: 7.56 µM
[3]; [10]
  IC50: > 20 µM
HeLa cells; [19]
  EC50: > 10 µM
INS-1E cells; [20]
  EC50: > 10 µM
hp70S6K1 (RPS6KB1)
  IC50: > 20 µM

## COC(=O)Nc1nc2ccc(C(=O)c3cccs3)cc2[nH]1 [Nocodazole]
[1]; [21]
  EC50: 0.0434 µM
hJAK2; kinase assay
  IC50: > 20 µM
SW480; [22]
  IC50: > 20 µM
hKDR; kinase assay, read-out: KDR
  IC50: 6.61 µM
hFLT3; kinase assay
  IC50: > 20 µM
NCI-H716 cells; [23]
  EC50: > 10 µM
DLD-1; [24]
  IC50: 1.66 µM
[2]; [25]
  IC50: 0.102 µM
hGSK3b; kinase assay
  IC50: 19.9 µM
HCT116; [26]
  IC50: 1.08 µM
[3]; [27]
  IC50: 1.12 µM
HeLa cells; [28]
  EC50: 0.0221 µM
INS-1E cells; [29]
  EC50: > 10 µM
hp70S6K1 (RPS6KB1); kinase assay
  IC50: > 20 µM

## CCCOc1ccc2nc(NC(=O)OC)[nH]c2c1 [Oxibendazole]
[1]; [21]
  EC50: 0.0881 µM
hJAK2; kinase assay
  IC50: > 20 µM
SW480; [22]
  IC50: > 20 µM
hKDR; kinase assay, read-out: KDR
  IC50: > 20 µM
hFLT3; kinase assay
  IC50: > 20 µM
NCI-H716 cells; [23]
  EC50: > 10 µM
DLD-1; [24]
  IC50: > 20 µM
[2]; [25]
  IC50: 0.328 µM
hGSK3b; kinase assay
  IC50: > 20 µM
HCT116; [26]
  IC50: 4.75 µM
[3]; [27]
  IC50: > 20 µM
HeLa cells; [28]
  EC50: 0.0567 µM
INS-1E cells; [29]
  EC50: > 10 µM
hp70S6K1 (RPS6KB1); kinase assay
  IC50: > 20 µM

## CCCCC1C(=O)N(c2ccccc2)N(c2ccc(O)cc2)C1=O (centres unmarked) [Oxyphenbutazone]
[1]; [13]
  EC50: 4.92 µM
hJAK2
  IC50: > 20 µM
SW480; [14]
  IC50: 3.01 µM
hKDR; read-out: KDR
  IC50: > 20 µM
hFLT3
  IC50: > 20 µM
NCI-H716 cells; [15]
  EC50: > 10 µM
DLD-1; [16]
  IC50: 5.87 µM
[2]; [17]
  IC50: 3.29 µM
hGSK3b
  IC50: > 20 µM
HCT116; [18]
  IC50: 15.7 µM
[3]; [10]
  IC50: > 20 µM
HeLa cells; [19]
  EC50: > 10 µM
INS-1E cells; [20]
  EC50: > 10 µM
hp70S6K1 (RPS6KB1)
  IC50: > 20 µM

## COc1cc([C@@H]2c3cc4c(cc3[C@H](O)[C@H]3COC(=O)[C@H]23)OCO4)cc(OC)c1OC [Podofilox]
[1]; [21]
  EC50: 0.0091 µM
hJAK2; kinase assay
  IC50: > 20 µM
SW480; basal, SW480, read-out: Basal_Viability ATP SW480
  IC50: 0.207 µM
hKDR; kinase assay, read-out: KDR
  IC50: > 20 µM
hFLT3; kinase assay
  IC50: > 20 µM
NCI-H716 cells; [23]
  EC50: > 10 µM
DLD-1; basal, DLD-1, read-out: Basal_Viability ATP DLD-1
  IC50: 0.182 µM
[2]; [25]
  IC50: 0.0081 µM
hGSK3b; kinase assay
  IC50: > 20 µM
HCT116; [26]
  IC50: 0.184 µM
[3]; [27]
  IC50: 0.0667 µM
HeLa cells; Homo sapiens; S2 Table; HeLa; 20 = no response at highest concentration; read-out: CellCycle G2/M
  EC50: 0.0077 µM
INS-1E cells; [29]
  EC50: > 10 µM
hp70S6K1 (RPS6KB1); kinase assay
  IC50: > 20 µM
